Data published in patent publication US5541175A, “Cephalosporin antibiotics” (Lucky, Ltd., priority 1993, dated 1996).
Values after ≈ are worked out from the molar mass of the structure shown. Like-named read-outs stand apart in the source and are kept apart here.

What was measured:
[1] = system: Acinetobacter calcoaceticus 15473A; experiment: Minimum inhibitory concentration (agar 2-fold dilution); type: cell-based; conditions: A. calcoaceticus 15473A, Muller-Hinton agar, 37° C., 20 hours, read-out: Minimum Inhibitory Concentration
Experimental: (§1) The minimum inhibitory concentration was determined by diluting the test compounds according to 2-fold dilution, suspending them in Muller-Hinton agar medium, inoculating 2 μl of the suspension containing the test strains having 10^7 CFU (Colony Forming Unit) per 1 ml into the medium and then culturing the test strains at 37° C. for 20 hours.

Enterobacter cloacae P99 = experiment: as above; type: cell-based; conditions: P99, 20 h, read-out: Minimum Inhibitory Concentration
Experimental: as §1

[2] = system: Escherichia coli TEM1 1193E; experiment: as above; type: cell-based; conditions: TEM11193E, 20 h, read-out: Minimum Inhibitory Concentration
Experimental: as §1

[3] = system: Pseudomonas aeruginosa 6065; experiment: as above; type: cell-based; conditions: Pseudomonas aeruginosa; P. aeruginosa 6065; Muller-Hinton agar, 37° C., 20 hours; read-out: Minimum Inhibitory Concentration
Experimental: as §1

Escherichia coli 3190Y = experiment: as above; type: cell-based; conditions: E. coli 3190Y, Muller-Hinton agar, 37° C., 20 hours, read-out: Minimum Inhibitory Concentration
Experimental: as §1

Escherichia coli 10536 = experiment: as above; type: cell-based; conditions: Escherichia coli; E. coli 10536; Muller-Hinton agar, 37° C., 20 hours; read-out: Minimum Inhibitory Concentration
Experimental: as §1

[4] = system: Klebsiella aerogenes K1 + 1082E; experiment: as above; type: cell-based; conditions: 20 h, read-out: Minimum Inhibitory Concentration
Experimental: as §1

Proteus vulgaris 6059A = experiment: as above; type: cell-based; conditions: P. vulgaris 6059A, Muller-Hinton agar, 37° C., 20 hours, read-out: Minimum Inhibitory Concentration
Experimental: as §1

[5] = system: Staphylococcus aureus epidermidis 887E; experiment: as above; type: cell-based; conditions: S. aureus epidermidis 887E, Muller-Hinton agar, 37° C., 20 hours, read-out: Minimum Inhibitory Concentration
Experimental: as §1

[6] = system: Salmonella typhimurium 14028A; experiment: as above; type: cell-based; conditions: Salmonella enterica; S. typhimurium 14028A; Muller-Hinton agar, 37° C., 20 hours; read-out: Minimum Inhibitory Concentration
Experimental: as §1

[7] = system: Streptococcus faecalis 29212A; experiment: as above; type: cell-based; conditions: Enterococcus faecalis; S. faecalis 29212A; Muller-Hinton agar, 37° C., 20 hours; read-out: Minimum Inhibitory Concentration
Experimental: as §1

[8] = system: Pseudomonas aeruginosa 10145; experiment: as above; type: cell-based; conditions: Pseudomonas aeruginosa; P. aeruginosa 10145; Muller-Hinton agar, 37° C., 20 hours; read-out: Minimum Inhibitory Concentration
Experimental: as §1

[9] = system: Escherichia coli TEM9 2639E; experiment: as above; type: cell-based; conditions: TEM92639E, 20 h, read-out: Minimum Inhibitory Concentration
Experimental: as §1

[10] = system: Staphylococcus aureus 241; experiment: as above; type: cell-based; conditions: Staphylococcus aureus; S. aureus 241; Muller-Hinton agar, 37° C., 20 hours; read-out: Minimum Inhibitory Concentration
Experimental: as §1

[11] = system: Escherichia coli TEM7 3457E; experiment: as above; type: cell-based; conditions: TEM73457E, 20 h, read-out: Minimum Inhibitory Concentration
Experimental: as §1

[12] = system: Serratia marcescens 1826E; experiment: as above; type: cell-based; conditions: S. marcescens 1826E, Muller-Hinton agar, 37° C., 20 hours, read-out: Minimum Inhibitory Concentration
Experimental: as §1

[13] = system: Pseudomonas aeruginosa 1912E; experiment: as above; type: cell-based; conditions: P. aeruginosa 1912E, Muller-Hinton agar, 37° C., 20 hours, read-out: Minimum Inhibitory Concentration
Experimental: as §1

[14] = system: Enterobacter cloacae IND + VE 1194E; experiment: as above; type: cell-based; conditions: E. cloacae IND + VE 1194E, Muller-Hinton agar, 37° C., 20 hours, read-out: Minimum Inhibitory Concentration
Experimental: as §1

[15] = system: Staphylococcus aureus 6538P; experiment: as above; type: cell-based; conditions: read-out: Minimum Inhibitory Concentration
Experimental: as §1

[16] = system: Staphylococcus aureus giorgio; experiment: as above; type: cell-based; conditions: S. aureus giorgio, Muller-Hinton agar, 37° C., 20 hours, read-out: Minimum Inhibitory Concentration
Experimental: as §1

[17] = system: Escherichia coli TEM3 3455E; experiment: as above; type: cell-based; conditions: TEM33455E, 20 h, read-out: Minimum Inhibitory Concentration
Experimental: as §1

[18] = system: Klebsiella aerogenes SHV-1 1976E; experiment: as above; type: cell-based; conditions: SHV11976E, K. aerogenes SHV-1 1976E, Muller-Hinton agar, 37° C., 20 hours
Experimental: as §1

[19] = system: Escherichia coli TEM5 3739E; experiment: as above; type: cell-based; conditions: TEM53739E, 20 h, read-out: Minimum Inhibitory Concentration
Experimental: as §1

Escherichia coli 851E = experiment: as above; type: cell-based; conditions: E. coli 851E, Muller-Hinton agar, 37° C., 20 hours
Experimental: as §1

Staphylococcus aureus 77 = experiment: as above; type: cell-based; conditions: read-out: Minimum Inhibitory Concentration
Experimental: as §1

[20] = system: Citrobacter diversus 2046E; experiment: as above; type: cell-based; conditions: Citrobacter koseri; C. diversus 2046E; Muller-Hinton agar, 37° C., 20 hours; read-out: Minimum Inhibitory Concentration
Experimental: as §1

[21] = Pharmacokinetic properties in rats (blood concentration by agar well biological assay); set-up: species or system SD rats (male); conditions: rat, in vivo, iv, 20 mg/kg
Experimental: The pharmacokinetic properties of the compound of the present invention were determined using SD rats (.male.) weighing 230±10 g. Specifically,the test samples were injected into femoral vein in an amount of 20 mg/kg to 4 to 5 test animals. Blood was taken from femoral vein 1, 2.5, 5, 10, 20, 40, 60, 120 and 180 minutes after administration and then subjected to a biological assay using agar well method to measure the blood concentration.

[22] = Staphylococcus aureus, S. aureus 77, Muller-Hinton agar, 37° C., 20 hours

| SMILES | MIC [1] | MIC (Enterobacter cloacae P99) | MIC [2] | MIC [3] | MIC (Escherichia coli 3190Y) | MIC (Escherichia coli 10536) | MIC [4] | MIC (Proteus vulgaris 6059A) | MIC [5] | MIC [6] | MIC [7] | MIC [8] | MIC [9] | MIC [10] | MIC [11] | MIC [12] | MIC [13] | MIC [14] | MIC [16] | MIC [17] | other results |
| --- | --- | --- | --- | --- | --- | --- | --- | --- | --- | --- | --- | --- | --- | --- | --- | --- | --- | --- | --- | --- | --- |
| Nc1nc(/C(=N/O[C@H](C(=O)O)c2ccc(O)c(O)c2)C(=O)N[C@@H]2C(=O)N3C(C(=O)[O-])=C(/C=C/C[n+]4cnc(N)c5c4CCC5)CS[C@H]23)cs1 [Compound I-3a, 7-[(Z)-2-(2-aminothiazol-4-yl)-2-(α-carboxy-3,4-dihydroxybenzyloxyimino)acetamido]-3-[(E)-3-(4-amino-5,6-cyclopentanopyrimidinium-1-yl)-1-propen-1-yl]-3-cephem-4-carboxylate] | 0.5 µg/mL (≈ 0.705 µM) | 16 µg/mL (≈ 22.6 µM) | 0.063 µg/mL (≈ 0.0889 µM) | 1 µg/mL (≈ 1.41 µM) | 0.031 µg/mL (≈ 0.0437 µM) | 0.008 µg/mL (≈ 0.0113 µM) | 0.063 µg/mL (≈ 0.0889 µM) | 0.13 µg/mL (≈ 0.183 µM) | 64 µg/mL (≈ 90.3 µM) | 0.031 µg/mL (≈ 0.0437 µM) | 4 µg/mL (≈ 5.64 µM) | 0.5 µg/mL (≈ 0.705 µM) | 2 µg/mL (≈ 2.82 µM) | > 128 µg/mL | 0.13 µg/mL (≈ 0.183 µM) | 0.5 µg/mL (≈ 0.705 µM) | 0.5 µg/mL (≈ 0.705 µM) | 2 µg/mL | 1 µg/mL (≈ 1.41 µM) | 0.063 µg/mL (≈ 0.0889 µM) | MIC ([15]; 6538P, 20 h): 1 µg/mL (≈ 1.41 µM); MIC [18]: 0.13 µg/mL (≈ 0.183 µM); MIC [19]: 0.5 µg/mL (≈ 0.705 µM); MIC (Escherichia coli 851E): 0.031 µg/mL (≈ 0.0437 µM); MIC (Staphylococcus aureus 77; [22]): 4 µg/mL (≈ 5.64 µM); MIC [20]: 0.063 µg/mL (≈ 0.0889 µM); AUC [21]: 36600 ng·h/mL; half-life [21]: 33 min |
| Cc1c(N)nc[n+](C/C=C/C2=C(C(=O)[O-])N3C(=O)[C@@H](NC(=O)/C(=N\O[C@H](C(=O)O)c4ccc(O)c(O)c4)c4csc(N)n4)[C@H]3SC2)c1N [Compound I-4a, 7-[(Z)-2-(2-aminothiazol-4-yl)-2-(α-carboxy-3,4-dihydroxybenzyloxyimino)acetamido]-3-[(E)-3-(4,6-diamino-5-methylpyrimidinium-1-yl)-1-propen-1-yl]-3-cephem-4-carboxylate] | 0.5 µg/mL (≈ 0.717 µM) | 8 µg/mL (≈ 11.5 µM) | 0.063 µg/mL (≈ 0.0903 µM) | 1 µg/mL (≈ 1.43 µM) | 0.063 µg/mL (≈ 0.0903 µM) | 0.008 µg/mL (≈ 0.0115 µM) | 0.063 µg/mL (≈ 0.0903 µM) | 0.063 µg/mL (≈ 0.0903 µM) | 16 µg/mL (≈ 22.9 µM) | 0.016 µg/mL (≈ 0.0229 µM) | 4 µg/mL (≈ 5.73 µM) | 0.5 µg/mL (≈ 0.717 µM) | 2 µg/mL (≈ 2.87 µM) | 64 µg/mL (≈ 91.7 µM) | 0.25 µg/mL (≈ 0.358 µM) | 0.25 µg/mL (≈ 0.358 µM) | 4 µg/mL (≈ 5.73 µM) | 2 µg/mL | 0.25 µg/mL (≈ 0.358 µM) | 0.25 µg/mL (≈ 0.358 µM) | MIC ([15]; S. aureus 6538P, Muller-Hinton agar, 37° C., 20 hours): 0.5 µg/mL (≈ 0.717 µM); MIC [18]: 0.13 µg/mL (≈ 0.186 µM); MIC [19]: 2 µg/mL (≈ 2.87 µM); MIC (Escherichia coli 851E): 0.063 µg/mL (≈ 0.0903 µM); MIC (Staphylococcus aureus 77; [22]): 2 µg/mL (≈ 2.87 µM); MIC [20]: 0.13 µg/mL (≈ 0.186 µM); AUC [21]: 53100 ng·h/mL; half-life [21]: 53 min |
| Nc1nc(/C(=N/O[C@@H](C(=O)O)c2ccc(O)c(O)c2)C(=O)N[C@@H]2C(=O)N3C(C(=O)[O-])=C(/C=C/C[n+]4cnc(N)c(N)c4N)CS[C@H]23)cs1 [Compound I-5b, 7-[(Z)-2-(2-aminothiazol-4-yl)-2-(α-carboxy-3,4-dihydroxybenzyloxyimino)acetamido]-3-[(E)-3-(4,5,6-triaminopyrimidinium-1-yl)-1-propen-1-yl]-3-cephem-4-carboxylate] | 1 µg/mL (≈ 1.43 µM) | 16 µg/mL (≈ 22.9 µM) | 0.25 µg/mL (≈ 0.358 µM) | 8 µg/mL (≈ 11.4 µM) | 0.13 µg/mL (≈ 0.186 µM) | 0.13 µg/mL (≈ 0.186 µM) | 1 µg/mL (≈ 1.43 µM) | 1 µg/mL (≈ 1.43 µM) | 64 µg/mL (≈ 91.6 µM) | 0.031 µg/mL (≈ 0.0444 µM) | 8 µg/mL (≈ 11.4 µM) | 2 µg/mL (≈ 2.86 µM) | 1 µg/mL (≈ 1.43 µM) | 128 µg/mL (≈ 183 µM) | 0.25 µg/mL (≈ 0.358 µM) | 2 µg/mL (≈ 2.86 µM) | 1 µg/mL (≈ 1.43 µM) | 8 µg/mL | 0.5 µg/mL (≈ 0.716 µM) | 0.063 µg/mL (≈ 0.0902 µM) | MIC ([15]; 6538P, 20 h): 0.5 µg/mL (≈ 0.716 µM); MIC [18]: 1 µg/mL (≈ 1.43 µM); MIC [19]: 1 µg/mL (≈ 1.43 µM); MIC (Escherichia coli 851E): 0.13 µg/mL (≈ 0.186 µM); MIC (Staphylococcus aureus 77; Staphylococcus aureus, 77, 20 h): 2 µg/mL (≈ 2.86 µM); MIC [20]: 4 µg/mL (≈ 5.72 µM) |
